Data taken from ChEMBL document CHEMBL1138623, “Synthesis and evaluation of aryl-substituted diarylpropionitriles, selective ligands for estrogen receptor beta, as positron-emission tomographic imaging agents” (Bioorg Med Chem, 2009).

species: Homo sapiens; test: Selectivity ratio of relative binding affinity for full-length human estrogen receptor beta to ratio of relative binding affinity for full length human estrogen receptor alpha

RBA [%] | Structure (SMILES)
272 | N#CC(Cc1ccc(O)c(F)c1)c1ccc(O)cc1 (stereo unspecified)
108 | N#CC(Cc1ccc(O)c(Br)c1)c1ccc(O)cc1 (stereo unspecified)
106 | N#CC(Cc1ccc(O)c(O)c1)c1ccc(O)cc1 (stereo unspecified)
21 | N#CC(c1ccc(O)cc1)C(CF)c1ccc(O)cc1 (stereo unspecified)
11 | CC(c1ccc(O)cc1)C(C#N)c1ccc(O)cc1 (stereo unspecified)
19 | N#CC(Cc1ccc(O)c(CO)c1)c1ccc(O)cc1 (stereo unspecified)
139 | Cc1cc(CC(C#N)c2ccc(O)cc2)ccc1O (stereo unspecified)
58 | N#CC(Cc1ccc(O)c(CCF)c1)c1ccc(O)cc1 (stereo unspecified)
140 | N#CC(Cc1ccc(O)c(I)c1)c1ccc(O)cc1 (stereo unspecified)
112 | N#CC(Cc1ccc(O)c(Cl)c1)c1ccc(O)cc1 (stereo unspecified)
45 | N#CC(Cc1ccc(O)c(CCCF)c1)c1ccc(O)cc1 (stereo unspecified)
